Measurements taken from PubChem BioAssay AID1845198 (Molecular Pharmacology Branch, DTP, NCI, 2023).

Tested on: 425362-245-T-J1 tumor spheroids, viability % test/control
Assay: Anticancer human tumor 425362-245-T-J1 patient-derived melanoma cell line growth inhibition
Conditions: spheroids with HUVEC and MSC; for IC50: curve of first compound; for viability, T/C: stronger effect = lower value
Procedure, shortened: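 Complex spheroids of malignant cells with endothelial cells and mesenchymal stem cells; agents alone or combined, from near clinical Cmax (or 10 microM if unknown) down in half-log steps, 0.25% DMSO final.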

[1] = second compound 1 µM, first compound 0.0316 µM
[2] = second compound 1 µM, first compound 0.1 µM
[3] = second compound 1 µM, first compound 0.316 µM
[4] = second compound 1 µM, first compound 1 µM
[5] = second compound 1 µM, first compound 3.16 µM
[6] = second compound 1 µM, first compound 10 µM
[7] = second compound 3.16 µM, first compound 0.0316 µM
[8] = second compound 3.16 µM, first compound 0.1 µM
[9] = second compound 3.16 µM, first compound 0.316 µM
[10] = second compound 3.16 µM, first compound 1 µM
[11] = second compound 3.16 µM, first compound 3.16 µM
[12] = second compound 3.16 µM, first compound 10 µM
[13] = second compound 10 µM, first compound 0.0316 µM
[14] = second compound 10 µM, first compound 0.1 µM
[15] = second compound 10 µM, first compound 0.316 µM
[16] = second compound 10 µM, first compound 1 µM
[17] = second compound 10 µM, first compound 3.16 µM
[18] = second compound 10 µM, first compound 10 µM
[19] = second compound 31.6 µM, first compound 0.0316 µM
[20] = second compound 31.6 µM, first compound 0.1 µM
[21] = second compound 31.6 µM, first compound 0.316 µM
[22] = second compound 31.6 µM, first compound 1 µM
[23] = second compound 31.6 µM, first compound 3.16 µM
[24] = second compound 31.6 µM, first compound 10 µM
[25] = second compound 100 µM, first compound 0.0316 µM
[26] = second compound 100 µM, first compound 0.1 µM
[27] = second compound 100 µM, first compound 0.316 µM
[28] = second compound 100 µM, first compound 1 µM
[29] = second compound 100 µM, first compound 3.16 µM
[30] = second compound 100 µM, first compound 10 µM
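Note: spheroids exposed to agents for 7 days.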

Row | Structure (SMILES) | IC50 (second compound 1 µM) [µM] | IC50 (second compound 3.16 µM) [µM] | IC50 (second compound 10 µM) [µM] | IC50 (second compound 31.6 µM) [µM] | IC50 (second compound 100 µM) [µM] | viability, T/C [1] [%] | viability, T/C [2] [%] | viability, T/C [3] [%] | viability, T/C [4] [%] | viability, T/C [5] [%] | viability, T/C [6] [%] | viability, T/C [7] [%] | viability, T/C [8] [%] | viability, T/C [9] [%] | viability, T/C [10] [%] | viability, T/C [11] [%] | viability, T/C [12] [%] | viability, T/C [13] [%] | viability, T/C [14] [%] | viability, T/C [15] [%] | other results
1 | CC(C)n1c(=O)n(C)c2cnc3cc(F)c(-c4ccc(OCCCN5CCCCC5)nc4)cc3c21 + Cn1nnc2c(C(N)=O)ncn2c1=O | 0.124 | 0.225 | 0.266 | 0.141 | < 0.0316 | 57.7 | 55.8 | 36.1 | 20.8 | 13.7 | 5.19 | 77.4 | 67 | 43 | 20.6 | 19.5 | 6.63 | 74.2 | 72 | 45.1 | viability, T/C [16]: 21.4%; viability, T/C [17]: 18.9%; viability, T/C [18]: 5.99%; viability, T/C [19]: 67.8%; viability, T/C [20]: 58.5%; viability, T/C [21]: 32.8%; viability, T/C [22]: 19.8%; viability, T/C [23]: 14.5%; viability, T/C [24]: 6.37%; viability, T/C [25]: 45.8%; viability, T/C [26]: 23.7%; viability, T/C [27]: 17.5%; viability, T/C [28]: 12.1%; viability, T/C [29]: 8.75%; viability, T/C [30]: 5.3%
2 | COc1ccc([C@@H](O)c2cc(-c3ncnc4cc(N5CCOCC5)ccc34)c(F)cc2Cl)nn1 + Cn1nnc2c(C(N)=O)ncn2c1=O | 2.3 | 2.57 | 2.5 | 2.67 | 2.1 | 91 | 95.6 | 87.5 | 70.2 | 42.5 | 19.1 | 101 | 111 | 104 | 76.2 | 45.7 | 20.3 | 111 | 117 | 113 | viability, T/C [16]: 74.8%; viability, T/C [17]: 46.6%; viability, T/C [18]: 22.2%; viability, T/C [19]: 110%; viability, T/C [20]: 109%; viability, T/C [21]: 94%; viability, T/C [22]: 78.9%; viability, T/C [23]: 44%; viability, T/C [24]: 20.8%; viability, T/C [25]: 101%; viability, T/C [26]: 84.7%; viability, T/C [27]: 82.2%; viability, T/C [28]: 65.1%; viability, T/C [29]: 40.3%; viability, T/C [30]: 20.5%
